Laboratory results: patent US6797824B2, “Certain 4-aminomethyl-2-substituted imidazole derivatives and 2-aminomethyl-4-substituted imidazole derivatives; new classes of dopamine receptor subtype specific ligands” (Neurogen Corporation, priority 1990, dated 2004)
Structures can show the parent of a compound that is named as a salt.

Test system: not given
Assay: not given

melting point [°C] | Structure (SMILES)
198 to 199 | COc1ccccc1N1CCN(Cc2cnc(-c3cccc(Cl)c3)[nH]2)CC1 (as salt: hydrochloride) [Compound 22, 2-(3-Chlorophenyl)-4(5)-[(4-(2-methoxyphenyl)-piperazin-1-yl)-methyl]-imidazole dihydrochloride]
234 to 236 | c1ccc(CC2CCN(Cc3cnc(-c4ccccc4)[nH]3)CC2)cc1 (as salt: hydrochloride) [Compound 25, 2-Phenyl-4(5)-[(4-benzyl-piperidin-1-yl)methyl]-imidazole dihydrochloride]
64 to 68 | Fc1ccc(N2CCN(Cc3cnc(-c4ccccc4)[nH]3)CC2)cc1 (as salt: hydrochloride) [Compound 56, 2-Phenyl-4(5)-[(4(4-fluorophenyl)-piperazin-1yl-)methyl]imidazole dihydrochloride]
188 to 190 | Fc1ccnc(N2CCN(Cc3c[nH]c(-c4ccccc4)n3)CC2)n1 (as salt: hydrochloride) [Compound 58, 2-Phenyl-4(5)-[(4(4-fluoro-2-pyrimidinyl)-piperazin-1yl)-methyl]imidazole dihydrochloride]
142 to 145 | Cc1ccc(Cl)cc1N1CCN(Cc2cnc(-c3ccccc3)[nH]2)CC1 (as salt: hydrochloride) [Compound 60, 2-Phenyl-4(5)-[(4(5-chloro-2-methylphenyl)-piperazin-1yl-)-methyl]imidazole dihydrochloride]
196 to 199 | Ic1nc(-c2ccccc2)[nH]c1CN1CCN(c2ncccn2)CC1 (as salt: hydroiodid) [Compound 90, 2-phenyl-5-iodo-4(5)-[(4-(2-pyrimidinyl)piperazin-1-yl)methyl]-imidazole hydroiodide salt]
105 to 107 | COc1ccccc1N1CCN(Cc2cnc(-c3ccccc3)[nH]2)CC1 [Compound 19, 2-phenyl-4(5)-[(4-(2-methoxyphenyl)-piperazin-1-yl)-methyl]imidazole]
95 to 97 | COc1ccccc1N1CCN(Cc2cnc(-c3ccc(F)cc3)[nH]2)CC1 [Compound 20, 2-(4-Fluorophenyl)-4(5)-[(4-(2-methoxyphenyl)-piperazin-1-yl)-methyl]-imidazole]
179 to 181 | Clc1ccc(N2CCN(Cc3cnc(-c4ccccc4)[nH]3)CC2)cc1Cl [Compound 61, 2-Phenyl-4(5)-[(4(3,4-dichlorophenyl)-piperazin-1yl-)methyl]imidazole]
177 to 179 | O=C(c1ccccc1)c1ncc(CN2CCN(c3ncccn3)CC2)[nH]1 [Compound 116, 2-(benzoyl)-4(5)-[(4-(2-pyrimidinyl)-piperazin-1-yl)-methyl]-imidazole]
235 to 236 | O=C(/C=C/c1cnc(-c2ccccc2)[nH]1)N1CCN(c2ncccn2)CC1 [Compound 119, 2-phenyl-4(5)-[(4(2-pyrimidinyl)-piperazin-1-yl)-propen-1-oyl]-imidazole]
143 to 148 | O=C(CCc1cnc(-c2ccccc2)[nH]1)N1CCN(c2ncccn2)CC1 [Compound 122, 2-phenyl-4(5)-[(4-(2-pyrimidinyl)-piperazin-1-yl)-propan-1-oyl]-imidazole]
133 to 135 | c1ccc(-c2ncc(CCCN3CCN(c4ncccn4)CC3)[nH]2)cc1 [Compound 125, 2-phenyl-4(5)-[(4-(2-pyrimidinyl)-piperazin-1-yl)-propan-1-yl]-imidazole]
221 to 225 | c1ccc(-c2nc(-c3ccccc3)c(CN3CCN(c4ncccn4)CC3)[nH]2)cc1 [Compound 132, 2,5-diphenyl-4(5)-[(4-(2-pyrimidinyl)piperazin-1-yl)methyl]-imidazole]
130 to 135 | C[C@@H]1CN(c2ncccn2)C[C@H](C)N1Cc1cnc(-c2ccccc2)[nH]1 [Compound 140, 2-phenyl-4(5)-[(4-(2-pyrimidinyl)-cis-2,6-dimethylpiperazin-1-yl)-methyl]-imidazole]
142 to 144 | c1ccc(-c2ncc(CCN3CCN(c4ncccn4)CC3)[nH]2)cc1 [Compound 143, 2-phenyl-4(5)-[(4-(2-pyrimidinyl)-piperazin-1-yl)-ethan-1-yl]-imidazole]
231 to 232 | O=C(c1cnc(-c2ccccc2)[nH]1)N1CCN(c2ncccn2)CC1 [Compound 144, 2-phenyl-4(5)-N-[(4-(2-pyrimidinyl)-piperazin-1-yl)-carboxamido]-imidazole]

The next lines start with the compound.

Structure (SMILES) | melting point [°C]
c1ccc(CC2CCN(Cc3ncc(-c4ccccc4)[nH]3)CC2)cc1 (as salt: fumarate) [Compound 77, 4phenyl-2(5)-[(4-benzylpiperidin-1-yl)-methyl]imidazole] | 155 to 157
COc1ccc(Br)cc1-c1ncc(CN(C)C)[nH]1 (as salt: hydrochloride) [Compound 1, 2-(5-bromo-2-methoxyphenyl)-4(5)-[(N,N-dimethyl)aminomethyl]-imidazole dihydrochloride] | 242 to 243
COc1cc(Br)cc(-c2ncc(CN(C)C)[nH]2)c1OC (as salt: hydrochloride) [Compound 16, 2-(5-Bromo-2,3-dimethoxyphenyl)-4(5)-[(N,N-dimethyl)aminomethyl]-imidazole dihydrochloride] | 194
COc1ccccc1N1CCN(Cc2cnc(-c3cccc(OC)c3OC)[nH]2)CC1 (as salt: hydrochloride) [Compound 21, 2-(2,3-Dimethoxyphenyl)-4(5)-[(4-(2-methoxyphenyl)-piperazin-1-yl)-methyl]-imidazole dihydrochloride] | 217 to 218
c1ccc(-c2nc(CN3CCC(c4ccccc4)CC3)c[nH]2)cc1 (as salt: hydrochloride) [Compound 26, 2-Phenyl-4(5)-[(4-phenyl-piperidin-1-yl)-methyl]-imidazole dihydrochloride] | 238 to 240
COc1ccc(Cl)cc1-c1ncc(CN2CCN(c3ccccc3OC)CC2)[nH]1 (as salt: hydrochloride) [Compound 43, 2-(5-Chloro-2-methoxyphenyl)-4(5)-[(4-(2-methoxyphenyl)-piperazin-1-yl)-methyl]-imidazole dihydrochloride] | 138 to 143
COc1ccc(-c2ncc(CN3CCC(c4ccccc4)CC3)[nH]2)cc1 (as salt: hydrochloride) [Compound 47, 2-(4-Methoxyphenyl)-4(5)-[(4-phenyl-piperidin-1-yl)-methyl]-imidazole dihydrochloride] | 196 to 199
COc1cccc(-c2ncc(CN3CCC(c4ccccc4)CC3)[nH]2)c1 (as salt: hydrochloride) [Compound 50, 2-(3-Methoxyphenyl)-4(5)[(4-phenyl-piperidin-1-yl)-methyl]-imidazole dihydrochloride] | 114 to 117
CCc1ccc(OC)c(-c2ncc(CN3CCN(c4ccccc4OC)CC3)[nH]2)c1 (as salt: hydrochloride) [Compound 55, 2-(5-Ethyl-2-methoxyphenyl-4(5)-[(4-(2-methoxyphenyl)-piperazin-1-yl)-methyl]-imidazoledihydrochloride] | 61 to 64
CC(c1cnc(-c2ccccc2)[nH]1)N1CCC(Cc2ccccc2)CC1 (stereo not drawn) (as salt: hydrochloride) [Compound 91, 2-phenyl-4(5)-[1-((4-benzyl-piperidin-1-yl)-ethan-1-yl)]imidazole dihydrochloride salt] | 169 to 171
Fc1ccccc1-c1nc(CN2CCC(c3ccccc3)CC2)c[nH]1 (as salt: maleate) [Compound 52, 2-(2-Fluorophenyl)-4(5)[(4-phenyl-piperidin-1-yl)-methyl]-imidazole dimaleate] | 142 to 144
c1ccc(CC2CCN(Cc3cnc(-c4cccc5ccccc45)[nH]3)CC2)cc1 [Compound 92, 2-(1-naphthyl)-4(5)-[(4-benzyl-piperidin-1-yl)-methyl]imidazole] | 81 to 83
c1cnc(N2CCN(Cc3cnc(C4CCCCC4)[nH]3)CC2)nc1 [Compound 128, 2-cyclohexyl-4(5)-[(4-(2-pyrimidinyl)-piperazin-1-yl)-methyl]-imidazole] | 210 to 213
c1ccc(CC2CCN(CC3CCCc4[nH]c(-c5ccccc5)nc43)CC2)cc1 (stereo not drawn) [Compound 138, 2-phenyl-7-[(4-benzyl-piperidin-1-yl)-methyl]-4,5,6,7-tetrahydrobenzimidazole] | 189 to 191

Target: T1, dopamine D4 receptors in human hippocampus (Homo sapiens, UniProt P21917)
T1 construct: from tissue; host or cells: human hippocampus (from the head of the results)
T1 sequence (P21917 1-419): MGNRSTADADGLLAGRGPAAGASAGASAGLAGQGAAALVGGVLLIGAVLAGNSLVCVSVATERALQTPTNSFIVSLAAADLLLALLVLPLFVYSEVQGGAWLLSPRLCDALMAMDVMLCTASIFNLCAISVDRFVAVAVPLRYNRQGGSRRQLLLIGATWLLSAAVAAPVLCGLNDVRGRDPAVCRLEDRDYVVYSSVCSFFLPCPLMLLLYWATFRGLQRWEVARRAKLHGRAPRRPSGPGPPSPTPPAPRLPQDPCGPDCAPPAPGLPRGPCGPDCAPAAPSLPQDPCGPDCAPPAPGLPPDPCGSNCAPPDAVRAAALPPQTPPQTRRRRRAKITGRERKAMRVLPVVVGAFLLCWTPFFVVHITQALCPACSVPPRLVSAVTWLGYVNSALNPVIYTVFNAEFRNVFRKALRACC
Assay: Binding to D4 receptors in human hippocampus

Structure (SMILES) | binding to dopamine D4 receptors, functional type
c1ccc(-c2ncc(CN3CCN(c4ccccn4)CC3)[nH]2)cc1 [Compound 24, 2-Phenyl-4(5)-[(4-(2-pyridyl)-piperazin-1-yl)-methyl]-imidazole dihydrochloride] | antagonists binding to dopamine D4 receptors

Target: T2, dopamine D4 receptors in rat hippocampus (Rattus norvegicus, UniProt P30729)
T2 construct: from tissue; host or cells: rat hippocampus (from the head of the results)
T2 sequence (P30729 1-387): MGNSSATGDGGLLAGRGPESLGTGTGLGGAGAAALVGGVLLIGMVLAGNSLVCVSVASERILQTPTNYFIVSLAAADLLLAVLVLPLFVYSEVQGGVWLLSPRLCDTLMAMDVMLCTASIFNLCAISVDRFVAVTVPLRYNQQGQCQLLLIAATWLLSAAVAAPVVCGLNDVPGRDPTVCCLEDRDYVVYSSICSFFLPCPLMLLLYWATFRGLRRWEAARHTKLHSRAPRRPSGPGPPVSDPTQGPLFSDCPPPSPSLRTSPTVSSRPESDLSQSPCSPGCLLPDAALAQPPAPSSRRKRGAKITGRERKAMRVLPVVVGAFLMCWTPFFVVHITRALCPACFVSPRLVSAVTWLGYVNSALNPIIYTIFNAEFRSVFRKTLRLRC
Assay: Binding to D4 receptors in rat hippocampus

Structure (SMILES) | binding to dopamine D4 receptors, functional type
c1ccc(-c2ncc(CN3CCN(c4ccccn4)CC3)[nH]2)cc1 [Compound 24, 2-Phenyl-4(5)-[(4-(2-pyridyl)-piperazin-1-yl)-methyl]-imidazole dihydrochloride] | antagonists binding to dopamine D4 receptors
